Data: US12624034B2, “Non-covalent modifiers of AKT1 and uses thereof” (Terremoto Biosciences, Inc., priority 2023, dated 2026)

Legend:
AKT1 WT = biological target: T1, AKT1 WT (Homo sapiens, UniProt P31749); experiment: Live cell AKT1 WT target engagement by NanoBRET competitive probe displacement in HEK293 cells; assay type: binding; settings: NanoBRET live cell target engagement, HEK293 cells, 2 h at 37° C.; read-out: AKT1 WT IC50
T1 construct: expressed in transfected cells; host or cells: HEK293
Method: (§1) Determining live cell AKT1 E17K, AKT1 WT, and AKT2 target engagement by NanoBRET competitive probe displacement. […] Briefly, HEK293 cells were transfected with plasmids encoding kinase-NanoLuciferase fusion proteins overnight. Cells were then treated with serial dilutions of compound and an ˜EC50 concentration of fluorescently-tagged ATP-competitive tracer (Promega). After incubation for 2 h at 37° C., luciferase substrate and extracellular luciferase inhibitor were added to all wells, and luminescent intensity at 460 nm and 600 nm were measured on a multimode plate-reader. The ratio of E600/E460 was calculated to give the tracer engagement signal (BRET). IC50 values were calculated by fitting BRET values to a log(inhibitor) vs. response Hill equation.

AKT2 = biological target: T2, AKT2 (Homo sapiens, UniProt P31751); experiment: Live cell AKT2 target engagement by NanoBRET competitive probe displacement in HEK293 cells; assay type: binding; settings: NanoBRET live cell target engagement, HEK293 cells, 2 h at 37° C.; read-out: AKT2 IC50
T2 construct: expressed in transfected cells; host or cells: HEK293
Method: as §1

T1 sequence (P31749 whole entry): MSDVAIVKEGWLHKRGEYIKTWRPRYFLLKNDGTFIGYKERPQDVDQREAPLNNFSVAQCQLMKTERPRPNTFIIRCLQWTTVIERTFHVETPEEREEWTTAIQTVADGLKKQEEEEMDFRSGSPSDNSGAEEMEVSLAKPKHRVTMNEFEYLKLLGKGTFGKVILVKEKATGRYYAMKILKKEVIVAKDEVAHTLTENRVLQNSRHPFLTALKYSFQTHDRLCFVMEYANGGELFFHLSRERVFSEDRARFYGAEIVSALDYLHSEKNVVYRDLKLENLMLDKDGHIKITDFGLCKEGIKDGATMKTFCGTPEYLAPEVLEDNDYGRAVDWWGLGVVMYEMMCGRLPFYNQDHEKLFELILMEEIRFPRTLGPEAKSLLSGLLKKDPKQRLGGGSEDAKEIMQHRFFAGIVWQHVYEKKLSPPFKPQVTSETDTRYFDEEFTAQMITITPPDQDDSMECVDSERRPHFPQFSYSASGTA
T2 sequence (P31751 whole entry): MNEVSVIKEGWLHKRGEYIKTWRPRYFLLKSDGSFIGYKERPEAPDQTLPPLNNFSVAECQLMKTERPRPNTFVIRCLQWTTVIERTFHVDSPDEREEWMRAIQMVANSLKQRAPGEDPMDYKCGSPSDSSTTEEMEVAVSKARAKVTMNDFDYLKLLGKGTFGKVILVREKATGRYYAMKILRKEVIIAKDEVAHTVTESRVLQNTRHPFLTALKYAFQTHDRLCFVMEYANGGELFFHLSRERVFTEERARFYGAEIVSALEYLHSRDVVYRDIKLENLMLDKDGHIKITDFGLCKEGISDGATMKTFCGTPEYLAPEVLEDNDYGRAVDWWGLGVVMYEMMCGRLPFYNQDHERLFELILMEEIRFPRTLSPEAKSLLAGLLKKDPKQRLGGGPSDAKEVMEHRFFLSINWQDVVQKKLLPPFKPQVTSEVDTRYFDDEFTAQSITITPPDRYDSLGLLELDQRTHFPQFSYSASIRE

Compound	IC50 (AKT1 WT) [nM]	IC50 (AKT2) [nM]
Nc1ncccc1-c1nc2ccc(-n3cccn3)nc2n1-c1ccc2c(c1)CC[C@@H]2NC(=O)c1cnc(C(F)F)nc1 [Compound 114]	9.15	102
Cc1cc(C(=O)N[C@H]2CCc3cc(-n4c(-c5cccnc5N)nc5ccc(-n6cccn6)nc54)ccc32)cnc1C [Compound 115]	5.16	31.7
Cc1ncncc1C(=O)N[C@H]1CCc2cc(-n3c(-c4cccnc4N)nc4ccc(-n5cccn5)nc43)ccc21 [Compound 117]	5.32	103
Cc1nccnc1C(=O)N[C@H]1CCc2cc(-n3c(-c4cccnc4N)nc4ccc(-n5cccn5)nc43)ccc21 [Compound 118]	66.2	3230
Nc1ncccc1-c1nc2ccc(-n3cccn3)nc2n1-c1ccc2c(c1)CC[C@@H]2NC(=O)c1nccnc1C(F)F [Compound 119]	90.8	3160
Cc1ncc(C(=O)N[C@H]2CCc3cc(-n4c(-c5cccnc5N)nc5ccc(-n6cccn6)nc54)ccc32)s1 [Compound 120]	5.61	103
Nc1ncccc1-c1nc2ccc(-n3nccn3)nc2n1-c1ccc2c(c1)CC[C@@H]2NC(=O)c1cnc(C(F)F)c(F)c1 [Compound 121]	36.6	1590
COc1cc(-n2cccn2)nc2c1nc(-c1cccnc1N)n2-c1ccc2c(c1)CC[C@@H]2NC(=O)c1ccc(C(F)F)nc1 [Compound 122, (S)—N-(5-(2-(2-aminopyridin-3-yl)-7-methoxy-5-(1H-pyrazol-1-yl)-3H-imidazo[4,5-b]pyridin-3-yl)-2,3-dihydro-1H-inden-1-yl)-6-(difluoromethyl)nicotinamide]	10.6	34.6
N#Cc1cc(-n2cccn2)nc2c1nc(-c1cccnc1N)n2-c1ccc2c(c1)CC[C@@H]2NC(=O)c1ccc(C(F)F)nc1 [Compound 123, (S)—N-(5-(2-(2-aminopyridin-3-yl)-7-cyano-5-(1H-pyrazol-1-yl)-3H-imidazo[4,5-b]pyridin-3-yl)-2,3-dihydro-1H-inden-1-yl)-6-(difluoromethyl)nicotinamide]	9.84	114
COc1cc(-n2cccn2)nc2c1nc(-c1cccnc1N)n2-c1ccc2c(c1)CC[C@@H]2NC(=O)c1cccnc1C [Compound 124]	13.9	54.8
Cc1ncccc1C(=O)N[C@H]1CCc2cc(-n3c(-c4cccnc4N)nc4c(C#N)cc(-n5cccn5)nc43)ccc21 [Compound 125]	13.3	201
Cc1cc(C(=O)N[C@H]2CCc3cc(-n4c(-c5cccnc5N)nc5ccc(-n6cccn6)nc54)ccc32)nn1C [Compound 126]	721	532
Nc1ncccc1-c1nc2ccc(-n3cccn3)nc2n1-c1ccc2c(c1)CC[C@@H]2NC(=O)c1cccnc1F [Compound 127]	12.6	126
COc1ncccc1C(=O)N[C@H]1CCc2cc(-n3c(-c4cccnc4N)nc4ccc(-n5cccn5)nc43)ccc21 [Compound 128]	34.4	442
Cc1ncccc1C(=O)N[C@H]1CCc2cc(-n3c(-c4cccnc4N)nc4ccc(C5CC5)nc43)ccc21 [Compound 129]	111	> 10000
Nc1ncccc1-c1nc2ccc(C3CC3)nc2n1-c1ccc2c(c1)CC[C@@H]2NC(=O)c1ccc(C(F)F)nc1 [Compound 130]	46.4	2290
Nc1ncccc1-c1nc2ccc(-n3cccn3)nc2n1-c1ccc2c(c1)CC[C@@H]2NCc1ccccn1 [Compound 131]	42.5	785
CN(C(=O)N[C@H]1CCc2cc(-n3c(-c4cccnc4N)nc4ccc(-n5cccn5)nc43)ccc21)c1ccccc1 [Compound 132, (S)-3-(5-(2-(2-aminopyridin-3-yl)-5-(1H-pyrazol-1-yl)-3H-imidazo[4,5-b]pyridin-3-yl)-2,3-dihydro-1H-inden-1-yl)-1-methyl-1-phenylurea]	> 1000	2550
Nc1ncccc1-c1nc2ccc(-n3cccn3)nc2n1-c1ccc2c(c1)CC[C@@H]2NC(=O)Nc1ccccc1 [Compound 133]	76.2	1340
CC(C)NC(=O)N[C@H]1CCc2cc(-n3c(-c4cccnc4N)nc4ccc(-n5cccn5)nc43)ccc21 [Compound 134, (S)-1-(5-(2-(2-aminopyridin-3-yl)-5-(1H-pyrazol-1-yl)-3H-imidazo[4,5-b]pyridin-3-yl)-2,3-dihydro-1H-inden-1-yl)-3-isopropylurea]	> 1000	> 10000
Cc1ncccc1C(=O)N[C@H]1CCc2cc(-n3c(-c4cccnc4N)nc4ccc(N5CCOCC5)nc43)ccc21 [Compound 135]	83.1	1110
Nc1ncccc1-c1nc2ccc(N3CCOCC3)nc2n1-c1ccc2c(c1)CC[C@@H]2NC(=O)c1ccc(C(F)F)nc1 [Compound 136]	19.8	284
Cc1cnc(C)c(C(=O)N[C@H]2CCc3cc(-n4c(-c5cccnc5N)nc5ccc(-n6cccn6)nc54)ccc32)c1 [Compound 137]	21.5	174
